Tests used:
Rat [1] = experiment: concentration in liver after dosing; details: oral
Rat [2] = experiment: concentration in brain after dosing; details: oral
Rat [3] = experiment: concentration in kidney after dosing; details: oral
Rat [4] = experiment: concentration in plasma after dosing

O=C(O)C(F)(F)C(F)(F)C(F)(F)C(F)(F)C(F)(F)F [Perfluorohexanoic Acid]
dosed: Perfluorohexanoic Acid, 80 mg/kg
Details | concentration in brain, Rat [2] [ng/g] | concentration in kidney, Rat [3] [ng/g] | concentration in liver, Rat [1] [ng/g]
0.5 h, Female, Harlan Sprague Dawley | 1210 | 55900 | 32800
0.5 h, Male, Harlan Sprague Dawley | 2270 | 207000 | 105000
1 h, Female, Harlan Sprague Dawley | 1770 | 98400 | 42200
1 h, Male, Harlan Sprague Dawley | 2670 | 74100 | 87200
3 h, Female, Harlan Sprague Dawley | 703 | 45000 | 8510
3 h, Male, Harlan Sprague Dawley | 1170 | 44300 | 29600
3 h, Male, Harlan Sprague Dawley - this seems too small | 799 | 56500 | 36100
6 h, Female, Harlan Sprague Dawley | – | 14200 | 5010
6 h, Male, Harlan Sprague Dawley | 495 | 10900 | 9650
12 h, Female, Harlan Sprague Dawley | – | 663 | –
12 h, Male, Harlan Sprague Dawley | – | 2880 | 3140

concentration in plasma [ng/mL], Rat [4], dosed: Perfluorohexanoic Acid
Details | 40 mg/kg | 80 mg/kg
0.25 h, iv, Male, F344 | 21800 | –
0.25 h, oral, Male, Harlan Sprague Dawley | 27900 | 92000
0.5 h, iv, Female, Harlan Sprague-Dawley | 6320 | –
0.5 h, iv, Male, F344 | 26100 | –
0.5 h, oral, Male, Harlan Sprague Dawley | 64700 | 151000
0.75 h, iv, Female, Harlan Sprague-Dawley | 1990 | –
0.75 h, iv, Male, F344 | 12600 | –
0.75 h, oral, Male, Harlan Sprague Dawley | 55100 | 110000
1 h, iv, Female, Harlan Sprague-Dawley | 327 | –
1 h, iv, Male, F344 | 9120 | –
1 h, oral, Male, Harlan Sprague Dawley | 48300 | 127000
1.5 h, iv, Male, F344 | 7580 | –
3 h, iv, Male, F344 | 3740 | –
3 h, oral, Male, Harlan Sprague Dawley | 34400 | 60100
3 h, oral, Male, Harlan Sprague Dawley - this seems too small | – | 59500
5 min, iv, Male, F344 | 22900 | –
5 min, oral, Male, Harlan Sprague Dawley | 14600 | 59900
6 h, iv, Male, F344 | 3840 | –
6 h, oral, Male, Harlan Sprague Dawley | 18300 | 27700
9 h, oral, Male, Harlan Sprague Dawley | 3710 | 3460
12 h, iv, Male, F344 | 57.2 | –
12 h, oral, Male, Harlan Sprague Dawley | 2040 | –
24 h, iv, Male, F344 | 68.1 | –
24 h, oral, Male, Harlan Sprague Dawley | 222 | 627

O=S(=O)([O-])C(F)(F)C(F)(F)C(F)(F)C(F)(F)C(F)(F)C(F)(F)C(F)(F)C(F)(F)F [Perfluorooctane Sulfonate]
dosed: Perfluorooctane Sulfonate
Details | concentration in brain, Rat [2] [ng/g] | concentration in kidney, Rat [3] [ng/g] | concentration in liver, Rat [1] [ng/g]
6 h, 2 mg/kg, Female, Harlan Sprague Dawley | – | 4960 | 24800
6 h, 20 mg/kg, Female, F344 | 3650 | 112000 | 118000
6 h, 20 mg/kg, Male, Harlan Sprague Dawley | 5430 | 85500 | 135000
24 h, 2 mg/kg, Female, Harlan Sprague Dawley | 615 | 5860 | 24400
24 h, 20 mg/kg, Female, F344 | 11500 | 131000 | 127000
24 h, 20 mg/kg, Male, Harlan Sprague Dawley | 9570 | 66800 | 148000
864 h, 2 mg/kg, Female, Harlan Sprague Dawley | – | 1750 | 13200
864 h, 20 mg/kg, Female, F344 | 3420 | 53400 | 72900
864 h, 20 mg/kg, Male, Harlan Sprague Dawley | 2750 | 21500 | 93900
1848 h, 2 mg/kg, Female, Harlan Sprague Dawley | – | 923 | 5150
1848 h, 20 mg/kg, Female, F344 | 1270 | 21400 | 44900
1848 h, 20 mg/kg, Male, Harlan Sprague Dawley | 1560 | 10500 | 51000
3360 h, 2 mg/kg, Female, Harlan Sprague Dawley | – | 517 | 8200
3360 h, 20 mg/kg, Male, Harlan Sprague Dawley | 672 | 2460 | 22900

concentration in plasma [ng/mL], Rat [4], dosed: Perfluorooctane Sulfonate, 2 mg/kg
Details | Female | Male
1 h, iv, F344 | 4190 | –
1 h, iv, Harlan Sprague-Dawley | 4680 | –
1 h, oral, Harlan Sprague Dawley | 2210 | –
5 min, iv, F344 | 4540 | –
5 min, iv, Harlan Sprague-Dawley | 4940 | –
5 min, oral, Harlan Sprague Dawley | 45.8 | –
6 h, iv, F344 | 4360 | 4280
6 h, oral, Harlan Sprague Dawley | 3970 | –
12 h, iv, F344 | 4300 | 3680
12 h, oral, Harlan Sprague Dawley | 7550 | –
24 h, iv, F344 | 4320 | 3470
24 h, iv, Harlan Sprague-Dawley | 3660 | –
24 h, oral, Harlan Sprague Dawley | 4650 | –
192 h, iv, F344 | 4590 | –
192 h, iv, Harlan Sprague-Dawley | 2490 | –
192 h, oral, Harlan Sprague Dawley | 3130 | –
528 h, iv, F344 | 3280 | 1770
528 h, iv, Harlan Sprague-Dawley | 2170 | –
528 h, oral, Harlan Sprague Dawley | 2690 | –
864 h, iv, F344 | 1540 | 1300
864 h, oral, Harlan Sprague Dawley | 1610 | –
1200 h, iv, F344 | 2010 | 1650
1200 h, iv, Harlan Sprague-Dawley | 650 | –
1200 h, oral, Harlan Sprague Dawley | 1100 | –
1704 h, iv, F344 | 1840 | 573
1704 h, iv, Harlan Sprague-Dawley | 868 | –
1848 h, oral, Harlan Sprague Dawley | 780 | –
2376 h, iv, F344 | 750 | 395
2376 h, iv, Harlan Sprague-Dawley | 698 | –
2520 h, oral, Harlan Sprague Dawley | 388 | –
3216 h, iv, F344 | 90.3 | –
3360 h, oral, Harlan Sprague Dawley | 237 | –

— EPA's CvTdb concentration-time database
